Here are results for 3 compounds from patent publication US20230138178A1, “Methods and Compositions for Producing a Heterologous Antiviral Compound in a Host Cell” (priority 2019, published 2023).

Data set [1] has as its system TLR-mediated NFkB activation. In words: TLR-mediated NFkB activation, RAW264.7 NFkB reporter cells. The format is cell-based. The conditions noted are these: for TLR-mediated NFkB activation: RAW264.7 NFkB reporter, pre-treated overnight, 500 ng/mL LPS, 1 μg/mL PAM, or 1 μg/mL R848.
A further data set has as its system flavivirus. The note with it: endogenously produced and exogenously administered; Gizzi et al., 2018; cited from earlier work.
The subject of another data set is Vaccinia virus. Format: cell-based.
A further data set relates to HSV-1. Format: cell-based, Herpes Simplex Virus 1. The note with it: mouse macrophages/BMDMs pre-treated with 1 mM ddhC; MOI 1 or 10; 24 hours; flow cytometry; preliminary. In general terms: A flow cytometer gives signals particle by particle.
A further data set deals with host cell physiology. The conditions noted are these: cited from earlier work.
Another data set concerns M. tuberculosis. The data set is described as follows: M. tuberculosis growth in ddhC-stimulated macrophages. Format: cell-based, Mycobacterium tuberculosis. The note with it: ddhC-stimulated macrophages vs Vehicle or Cytidine; preliminary.
For the next data set, the system named is LCMV. Format: cell-based, lymphocytic choriomeningitis virus. The conditions noted are these: BMDMs pre-treated with 1 mM ddhC; MOI 1 or 10; 24 hours; qPCR; preliminary. For orientation: In qPCR the cycle at which signal appears reflects the starting amount.
For data set [2], the system named is TLR-mediated Type 1 interferon signaling. In words: TLR-mediated Type 1 interferon signaling in macrophages. Format: cell-based.
The subject of another data set is Viperin expression. The data set is described as follows: Viperin expression in Poly(I:C)-stimulated BMDMs (qPCR). The conditions noted are these: 1 mM ddhC co-stimulated with 25 ug/mL Poly(I:C).
The subject of the next data set is ZIKV. The conditions noted are these: previous study; cited from earlier work.
The test system of another data set is WNV. The note with it: previous study; cited from earlier work.
A further data set has as its system HCV. The conditions noted are these: previous study; cited from earlier work.
In a further data set the test system is DV. The note with it: previous study; cited from earlier work.

Entries after “also recorded” stand apart in the source; their conditions may differ.

As for `Nc1nc2c(ncn2[C@@H]2OC(CO)=C[C@H]2O)c(=O)[nH]1` [ddhG], the “TLR-mediated NFkB activation” value in data set [1] is on record as “agonize”.
`Nc1ccn([C@@H]2OC(CO)=C[C@H]2O)c(=O)n1` [ddhC]: the flavivirus infection restriction entry in the data set with flavivirus is “restricts”. Further, the Vaccinia virus infection result with Vaccinia virus is given as “negligible effects”. Further, the “HSV-1 replication / infectivity” value with HSV-1 was “increases replication; also recorded: increasing”. The “toxicity to the host” value in the data set with host cell physiology is on record as “minimal evidence of toxicity”. Moreover, in the data set with M. tuberculosis, the “M. tuberculosis growth restriction” value is on record as “lead to restriction; also recorded: restrict M. tuberculosis growth greater than those treated with Vehicle or Cytidine”. Besides, the LCMV replication result with LCMV is listed as “suppresses replication”. The “TLR-mediated Type 1 interferon signaling” value in data set [2] (macrophages, preliminary data) was “modulates”. For the same compound, in the data set with Viperin expression, the “Poly(I:C)-induced Viperin upregulation” value was “dampened”. The “TLR-mediated NFkB activation” value in [1] was “agonize”. Moreover, the “TLR-mediated NFkB signaling in macrophages” value in data set [1] (macrophages, preliminary data) is given as “modulates”.
For `Nc1ccn([C@@H]2OC(COP(=O)(O)OP(=O)(O)OP(=O)(O)O)=C[C@H]2O)c(=O)n1` [ddhCTP, 3′-deoxy-3′, 4′-didehydro-CTP], in the data set with flavivirus, the flavivirus infection restriction result was “restricts”. In addition, in the data set on HSV-1, the “HSV-1 replication / infectivity” value is reported as “increases”. In addition, in the data set on host cell physiology, the “cytotoxic effects on host cell physiology” value is “no cytotoxic effects” and the “toxicity to the host” value is recorded as “minimal evidence of toxicity”. Moreover, the “suppression of ZIKV” value in the data set on ZIKV is listed as “can suppress”. In [2] (preliminary results), the “TLR4-mediated Type 1 interferon induction” value was “suppresses”. Besides, in the data set with WNV, the “suppression of WNV” value is on record as “can suppress”. Also, the “suppression of HCV” value with HCV is recorded as “can suppress”. For the same compound, the “suppression of DV” value in the data set on DV was “can suppress”.
